Measurements: patent US11718589B2, “Compositions and methods of modulating short-chain dehydrogenase” (CASE WESTERN RESERVE UNIVERSITY, priority 2017, dated 2023)

Target: recombinant 15-PGDH (Homo sapiens (Human), UniProt P15428)
Test: Enzyme inhibition of recombinant 15-PGDH, in vitro assay
Type: biochemical
Details: recombinant human 15-PGDH; read-out: Enzyme inhibition (IC50)

Sequence of recombinant 15-PGDH (P15428 whole entry): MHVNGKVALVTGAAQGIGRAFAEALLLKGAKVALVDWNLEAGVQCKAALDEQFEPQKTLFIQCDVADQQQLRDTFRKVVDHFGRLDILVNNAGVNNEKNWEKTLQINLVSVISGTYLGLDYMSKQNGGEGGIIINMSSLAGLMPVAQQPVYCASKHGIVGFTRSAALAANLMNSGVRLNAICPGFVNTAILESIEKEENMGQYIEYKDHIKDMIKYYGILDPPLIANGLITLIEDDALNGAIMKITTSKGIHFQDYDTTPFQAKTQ

Structure (SMILES) | IC50
CCCC[S+]([O-])c1cc2nc(-c3ccc(OC)cc3)cc(-c3cnc(C)n3C)n2n1 (stereo not drawn) [70a] | 100 to 500 nM
CCCC[S+]([O-])c1nc2nc(-c3nccs3)cc(C(F)(F)F)n2n1 (stereo not drawn) [50a] | > 2500 nM
CCCCSc1ccc2nc(-c3ccccc3)c(-c3ccccc3)nc2c1 [2b] | > 2500 nM
O=C(c1ccc2nc(-c3ccccc3)c(-c3ccccc3)nc2c1)N1CCCCC1CO (stereo not drawn) [26b] | 100 to 500 nM
CC1CCCCN1C(=O)c1ccc2nc(-c3ccccc3)c(-c3ccccc3)nc2c1 (stereo not drawn) [29b] | 100 to 500 nM
CCCC[S+]([O-])c1cc2nc(-c3ccc(OC)cc3)cc(-c3cccnc3)n2n1 (stereo not drawn) [51a] | 500 to 2500 nM
CCCCSc1cc2nc(-c3ccc(OC)cc3)cc(C(F)(F)F)n2n1 [2a, 2-(butylthio)-5-(4-methoxyphenyl)-7-(trifluoromethyl)pyrazolo[1,5-a]pyrimidine] | > 2500 nM
Cn1cc(-c2cc(C(F)(F)F)n3nc(C(=O)N4CCCCC4)cc3n2)cn1 [38a] | > 2500 nM
O=C(c1cc2nc(-c3ccccc3C(F)(F)F)cc(C(F)(F)F)n2n1)N1CCCCC1 [43a] | > 2500 nM
COc1ccc(-c2cc(C)n3nc(C(=O)N4CCCCC4)cc3n2)cc1 [35a] | 100 nM
O=C(c1cc2nc(N3CCCCC3)cc(C(F)(F)F)n2n1)N1CCCCC1 [39a] | 660 nM
CCCC[S+]([O-])c1nc2nc(-c3ccc(OC)cc3)cc(C(F)(F)F)n2n1 (stereo not drawn) [49a] | > 2500 nM
O=C(NCCO)c1ccc2nc(-c3ccccc3)c(-c3ccccc3)nc2c1 [17b] | > 2500 nM
CCCCS(=O)(=O)c1ccc2nc(-c3ccccc3)c(-c3ccccc3)nc2c1 [4b] | > 2500 nM
O=C(c1ccc2nc(-c3ccccc3)[nH]c2c1)N1CCCCC1 [32b] | 100 to 500 nM
COc1ccc(-c2cc(C(F)(F)F)n3nc(C(=O)N4CCC(F)(F)CC4)cc3n2)cc1 [59a] | 100 to 500 nM
O=C(c1cc2nc(-c3ccc(C(F)(F)F)cc3)cc(C(F)(F)F)n2n1)N1CCCCC1 [47a] | > 2500 nM
CCCC[S+]([O-])c1cc2nc(-c3ccc(OC)cc3)cc(-c3cncnc3)n2n1 (stereo not drawn) [52a] | 2500 nM
O=C(O)c1ccc2nc(-c3ccccc3)c(-c3ccccc3)nc2c1 [21b] | > 2500 nM

Further lines, results first:

IC50 | Structure (SMILES)
20 to 100 nM | CC1CCCN(C(=O)c2cc3nc(-c4ccc(Cl)cc4)cc(C(F)(F)F)n3n2)C1 (stereo not drawn) [75a]
4 to 20 nM | COc1ccc(-c2cc(C(F)(F)F)n3nc(C(=O)N4CCCC(C)(C)C4)cc3n2)cc1 [63a]
14 nM | O=C(c1cc2nc(-c3nccs3)cc(C(F)(F)F)n2n1)N1CCCCC1 [45a]
20 to 100 nM | Cn1cc(-c2nc3cc(C(=O)N4CCCCC4)ccc3nc2-c2ccccc2)cn1 [37b]
4 nM | O=C(c1ccc2ncc(-c3ccc(F)cc3F)nc2c1)N1CCCCC1 [45b]
4 to 20 nM | CCCC[S+]([O-])c1cc2nc(-c3ccc(OC)cc3)cc(-c3cccn3C)n2n1 (stereo not drawn) [54a]
~4 nM | CCOC(=O)c1[nH]c2ccc(-c3cnc4ccc(C(=O)N5CCCCC5)cc4n3)cc2c1C [91b]
~100 nM | COc1ccc(-c2cc(-c3cccnc3)n3nc(C(=O)N4CCCCC4)cc3n2)cc1 [23a]
< 100 nM | COc1ccc(-c2cc(C(F)(F)F)n3nc(C(=O)N4CCCCC4CO)cc3n2)cc1 (stereo not drawn) [17a]
14.6 nM | COc1ccc(-c2cc(C(F)(F)F)n3nc(C(=O)N4CCCC(C)C4)cc3n2)cc1 (stereo not drawn) [19a]
20 to 100 nM | COc1ccc(-c2cc(-c3cnn(C)c3)n3nc(C(=O)N4CCCCC4)cc3n2)cc1 [29a]
< 4 nM | Cc1c(C(N)=O)[nH]c2ccc(-c3cnc4ccc(C(=O)N5CCCCC5)cc4n3)cc12 [93b]
33 nM | COc1ccc(-c2cc(C(F)(F)F)n3nc(C(=O)N4CCCCC4C)cc3n2)cc1 (stereo not drawn) [20a]
20 nM | Cc1cc(-c2nc3cc(C(=O)N4CCCCC4)ccc3nc2-c2ccccc2)ccn1 [38b]
20 to 100 nM | CCCC[S+]([O-])c1cc2nc(-c3nccs3)cc(C(F)(F)F)n2n1 (stereo not drawn) [48a]
< 100 nM | COc1ccc(-c2cc(C(F)(F)F)n3nc(C(=O)N4CCC(CO)CC4)cc3n2)cc1 [16a]
20 to 100 nM | COc1ccc(-c2cc(-c3ccccn3)n3nc(C(=O)N4CCCCC4)cc3n2)cc1 [24a]
